In the CheMixHub ionic liquid set:
Several values for one entry are separate records, joined by “and”; a condition that tells them apart may be missing. Equal entries are not always repeated.

Experiment: xn = mol fraction of the nth substance listed

CCCC[n+]1ccn(C)c1.F[B-](F)(F)F + CN1CCCC1=O
viscosity, 101 kPa
Settings	298.15 K	303.15 K	308.15 K	313.15 K	323.15 K
x1 = 0.0115	2.02 mPa·s	1.88 mPa·s	1.52 mPa·s	1.44 mPa·s	–
x2 = 0	101 mPa·s	81 mPa·s and 84.2 mPa·s	61.5 mPa·s	51.5 mPa·s	35.5 mPa·s
x2 = 0.043	86 mPa·s	73.7 mPa·s	58.1 mPa·s	–	–
x2 = 0.0879	76.3 mPa·s	63.5 mPa·s	51.2 mPa·s	43.1 mPa·s	–
x2 = 0.0999	–	63.2 mPa·s	–	–	–
x2 = 0.2001	–	47.1 mPa·s	–	–	–
x2 = 0.2126	56.9 mPa·s	46.1 mPa·s	36.1 mPa·s	32.5 mPa·s	–
x2 = 0.3028	–	34.7 mPa·s	–	–	–
x2 = 0.388	35.2 mPa·s	25.2 mPa·s	16.5 mPa·s	14.6 mPa·s	–
x2 = 0.4	–	24.58 mPa·s	–	–	–
x2 = 0.5343	21.7 mPa·s	14.8 mPa·s	9.2 mPa·s	6.53 mPa·s	–
x2 = 0.6577	13.1 mPa·s	9.5 mPa·s	6.81 mPa·s	5.38 mPa·s	–
x2 = 0.7001	–	–	–	–	4.6 mPa·s
x2 = 0.7221	9.1 mPa·s	7.8 mPa·s	5.61 mPa·s	5.01 mPa·s	–
x2 = 0.7612	7.67 mPa·s	6.86 mPa·s	6.01 mPa·s	5.33 mPa·s	–
x2 = 0.8524	4.94 mPa·s	4.45 mPa·s	3.99 mPa·s	3.58 mPa·s	–
x2 = 0.9005	3.6 mPa·s	3.27 mPa·s	2.95 mPa·s	2.69 mPa·s	–
x2 = 0.9321	2.96 mPa·s	2.88 mPa·s	2.81 mPa·s	2.09 mPa·s	–
x2 = 0.9743	2.3 mPa·s	2.11 mPa·s	1.93 mPa·s	1.79 mPa·s	–

CCCCCCCCn1cc[n+](C)c1.O=S(=O)([N-]S(=O)(=O)C(F)(F)F)C(F)(F)F + CN(C)C=O
viscosity [mPa·s], 101 kPa
Settings	293.15 K	303.15 K	313.15 K	323.15 K	333.15 K	343.15 K	353.15 K	363.15 K
x1 = 0.001926	0.959	0.858	0.771	0.702	0.641	0.59	0.543	0.502
x1 = 0.003917	0.982	0.876	0.787	0.715	0.653	0.598	0.552	0.51
x1 = 0.007695	1.019	0.907	0.818	0.738	0.672	0.617	0.568	0.524
x1 = 0.01197	1.059	0.942	0.85	0.762	0.694	0.635	0.584	0.539
x1 = 0.01518	1.096	0.971	0.877	0.784	0.713	0.653	0.598	0.552
x1 = 0.0193	1.136	1.006	0.909	0.81	0.734	0.669	0.614	0.579

CCCC[n+]1ccn(C)c1.F[B-](F)(F)F + CN(C)C=O
Settings	viscosity [mPa·s]
293.15 K, 101 kPa, x1 = 0.08	3.1
298.15 K, 101 kPa, x1 = 0.74	42.5
298.15 K, 101 kPa, x1 = 0.83	62.4
298.15 K, 101 kPa, x1 = 0.94	88
298.15 K, 101.33 kPa, x2 = 0.1024	78
303.15 K, 100 kPa, x1 = 0.1008	1.497
303.15 K, 101 kPa, x1 = 0.94	74
308.15 K, 101 kPa, x1 = 0.43	5.71
313.15 K, 100 kPa, x1 = 0.8015	25.47
313.15 K, 100 kPa, x1 = 1	53.84
313.15 K, 101 kPa, x1 = 0.16	2.45
313.15 K, 101 kPa, x1 = 0.74	18.5
318.15 K, 101 kPa, x1 = 0.08	1.42
318.15 K, 101 kPa, x1 = 0.55	1.67
318.15 K, 101 kPa, x1 = 0.74	12
323.15 K, 100 kPa, x1 = 0.3022	2.993
323.15 K, 100 kPa, x1 = 0.7019	14.07
323.15 K, 101 kPa, x1 = 0.08	1.19
323.15 K, 101 kPa, x1 = 0.74	6.8
323.15 K, 101 kPa, x1 = 0.94	26.6
333.15 K, 100 kPa, x1 = 0.7019	10.75

NC(N)=[NH2+].O=S(=O)([O-])C(F)(F)F + CN(CCO)CCO + O
Settings	viscosity [mPa·s]
323.2 K, 101 kPa, x2 = 0.1179, x3 = 0.8792	3.5

CCCC[n+]1ccn(C)c1.F[B-](F)(F)F + CNC(C)=O
Settings	viscosity [mPa·s]
293.15 K, 101 kPa, x1 = 1	127.6

CCCC[n+]1ccn(C)c1.F[B-](F)(F)F + CO
101 kPa
Settings	electrical conductivity [S/m]	viscosity [mPa·s]
298.1 K, x1 = 0.007405	0.598	–
298.1 K, x1 = 0.03422	1.35	–
303.15 K, x2 = 0.6004	–	5.98
313.15 K, x2 = 0	–	53
313.15 K, x2 = 0.1003	–	36.1
313.15 K, x2 = 0.2047	–	24.26
313.15 K, x2 = 0.7997	–	1.778
313.15 K, x2 = 0.9001	–	0.993
323.15 K, x2 = 0.1003	–	25.42
323.15 K, x2 = 0.6004	–	4.07
333.15 K, x2 = 0.3996	–	7.23

CC1COC(=O)O1 (centres undefined) + COCCn1cc[n+](C)c1.N#C[S-]
101 kPa, x2 = 0
Settings	viscosity [mPa·s]
288.15 K	3.06
293.15 K	2.75
298.15 K	2.47
303.15 K	2.25
308.15 K	2.05
313.15 K	1.88
318.15 K	1.73
323.15 K	1.6
328.15 K	1.49
333.15 K	1.39
338.15 K	1.29
343.15 K	1.21

CCCOCCO + COS(=O)(=O)[O-].Cn1cc[n+](C)c1
viscosity [mPa·s], 101 kPa
Settings	x2 = 0.00104	x2 = 0.002597	x2 = 0.004149	x2 = 0.005696	x2 = 0.007238	x2 = 0.008775
293.15 K	2.6	2.63	2.65	2.67	2.7	2.73
303.15 K	2.15	2.18	2.21	2.24	2.27	2.29
313.15 K	1.81	1.84	1.88	1.91	1.95	1.99

CCC[N+]1(C)CCCC1.O=S(=O)([N-]S(=O)(=O)C(F)(F)F)C(F)(F)F + CS(C)=O
electrical conductivity [S/m], 101 kPa, frequency 0.0005 MHz
Settings	278.15 K	288.15 K	298.15 K	308.15 K	318.15 K	328.15 K	338.15 K	348.15 K	358.15 K
x1 = 0.05995	–	0.967	1.18	1.4	1.62	1.85	2.08	2.31	2.54
x1 = 0.1606	0.953	1.21	1.5	1.79	2.01	2.39	2.76	3.05	3.39
x1 = 0.3647	0.66	0.879	1.09	1.37	1.65	1.9	2.12	2.41	2.75

viscosity [mPa·s], 101 kPa
Settings	278.15 K	288.15 K	298.15 K	308.15 K	318.15 K	328.15 K	338.15 K	348.15 K	358.15 K
x1 = 0.05995	–	3.56	2.86	2.367	1.965	1.682	1.446	1.27	1.126
x1 = 0.1606	7.89	5.88	4.56	3.66	2.99	2.51	2.138	1.847	1.623
x1 = 0.3647	20.1	13.94	10.18	7.75	6.1	4.93	4.08	3.44	2.95
x1 = 1	163.6	96.2	60.6	40.8	28.9	21.3	16.29	12.82	10.34
